The nature of series [1]: refractive index (Na D-line) (dimensionless); mn = molality of the nth substance listed, in mol/kg. The settings on record: 298.15 K, 101 kPa, Liquid, Standard Abbe refractometry.
The nature of series [2]: mn = molality of the nth substance listed, in mol/kg. The following applies: 298.15 K, 101 kPa, Liquid, Pycnometric method.

The results in this text go back to the NIST ThermoML archive (doi:10.1021/acs.jced.5b00393).

One may read the refractive index as the speed of light in vacuum divided by its phase velocity in the sample. As a reminder, the mass density is the mass of a sample divided by its volume.

± gives the expanded uncertainty stated by the source.

Consider `NCCCC[C@H](N)C(=O)O` [L-lysine] + O, for which, in series [1] (m1 = 4.734), the refractive index is 1.4155 ± 0.0004. In series [2] (m1 = 4.734), the mass density is reported as 1242.1 ± 1.1 kg/m3.

On to `N[C@@H](CS)C(=O)O` [(R)-2-amino-3-mercaptopropanoic acid] + O, for which the refractive index in series [1] (m1 = 1.821) is given as 1.3439 ± 0.0004. For the same molecule, the mass density in series [2] (m1 = 1.821) came out at 1074.1 ± 1.1 kg/m3.
